# Measurements as given in ChEMBL document CHEMBL1146287, “New carbon-linked azole oxazolidinones with improved potency and pharmacokinetics” (Bioorg Med Chem Lett, 2007).
# Columns and labels:
# Streptococcus pneumoniae = assay: Antimicrobial activity against streptococcus pneumoniae by broth dilution method; type: functional
# Staphylococcus aureus = assay: Antimicrobial activity against staphylococcus aureus by broth dilution method; type: functional
# Haemophilus influenzae = assay: Antimicrobial activity against Haemophilus influenzae by broth dilution method; type: functional
# Mus musculus = assay: Antibacterial activity against Streptococcus pneumoniae ARC548 infected C57BL/6 mouse lung at 25 mg/kg, po after 2 days relative to Linezolid; type: functional
# [1] = target: T1, Amine oxidase [flavin-containing] A (Homo sapiens, UniProt P21397); assay: Inhibition human liver MAOA activity
# T1 sequence (P21397 whole entry): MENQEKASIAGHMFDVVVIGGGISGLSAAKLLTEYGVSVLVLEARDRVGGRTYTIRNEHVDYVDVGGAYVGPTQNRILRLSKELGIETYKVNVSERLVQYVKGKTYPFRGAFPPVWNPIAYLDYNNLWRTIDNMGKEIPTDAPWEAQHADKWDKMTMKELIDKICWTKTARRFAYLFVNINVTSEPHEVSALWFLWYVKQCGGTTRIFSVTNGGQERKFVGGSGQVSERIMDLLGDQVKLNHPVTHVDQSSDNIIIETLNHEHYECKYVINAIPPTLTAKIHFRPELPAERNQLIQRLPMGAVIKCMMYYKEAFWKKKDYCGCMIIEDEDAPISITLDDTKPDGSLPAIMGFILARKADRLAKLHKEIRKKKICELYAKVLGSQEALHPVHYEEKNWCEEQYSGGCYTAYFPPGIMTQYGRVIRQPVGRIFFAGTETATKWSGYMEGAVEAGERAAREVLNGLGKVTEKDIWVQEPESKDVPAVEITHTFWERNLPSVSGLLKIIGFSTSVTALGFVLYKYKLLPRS
# [2] = Half life in rat; type: ADME, organism-based; details: in vivo
# [3] = Oral bioavailability in rat at 40 mg/kg; type: ADME, organism-based; details: in vivo
# [4] = Plasma clearance in rat; type: ADME, organism-based
# [5] = Volume of distribution in rat; type: ADME, organism-based; details: in vivo, read-out: Vss
structure (smiles),measurement,setting,value
N#CCn1cc(-c2ccc(N3C[C@H](Cn4ccnn4)OC3=O)cc2F)nn1,MIC,Streptococcus pneumoniae,2 µg/mL
same,MIC,Staphylococcus aureus,4 µg/mL
same,MIC,Haemophilus influenzae,32 µg/mL
Cc1cc(-c2ccc(N3C[C@H](CNc4ccon4)OC3=O)cc2F)on1,MIC,Streptococcus pneumoniae,0.25 µg/mL
same,Lung antibacterial activity relative to linezolid,Mus musculus,33%
same,Ki,[1],0.42 µmol
same,MIC,Staphylococcus aureus,0.5 µg/mL
same,MIC,Haemophilus influenzae,16 µg/mL
Cc1cc(-c2ccc(N3C[C@H](Cn4ccnn4)OC3=O)cc2F)on1,MIC,Streptococcus pneumoniae,0.25 µg/mL
same,half-life,[2],1.7 h
same,Lung antibacterial activity relative to linezolid,Mus musculus,92%
same,Ki,[1],2.9 µmol
same,bioavailability,[3],82%
same,MIC,Staphylococcus aureus,0.5 µg/mL
same,clearance,[4],5 mL/min/kg
same,Vd,[5],0.6 L/kg
same,MIC,Haemophilus influenzae,8 µg/mL
CC(=O)NC[C@H]1CN(c2ccc(-c3c[nH]nn3)c(F)c2)C(=O)O1,MIC,Streptococcus pneumoniae,2 µg/mL
same,MIC,Staphylococcus aureus,4 µg/mL
same,MIC,Haemophilus influenzae,8 µg/mL
O=C1O[C@@H](Cn2ccnn2)CN1c1ccc(-c2c[nH]nn2)c(F)c1,MIC,Streptococcus pneumoniae,32 µg/mL
same,MIC,Staphylococcus aureus,64 µg/mL
same,MIC,Haemophilus influenzae,> 64 µg/mL
Cn1cc(-c2ccc(N3C[C@H](Cn4ccnn4)OC3=O)cc2F)nn1,MIC,Streptococcus pneumoniae,16 µg/mL
same,MIC,Staphylococcus aureus,32 µg/mL
same,MIC,Haemophilus influenzae,> 64 µg/mL
Cc1cn(C[C@H]2CN(c3ccc(-c4cc(C)no4)c(F)c3)C(=O)O2)nn1,MIC,Streptococcus pneumoniae,0.25 µg/mL
same,half-life,[2],1.2 h
same,Ki,[1],22.6 µmol
same,bioavailability,[3],87%
same,MIC,Staphylococcus aureus,0.5 µg/mL
same,clearance,[4],5 mL/min/kg
same,Vd,[5],0.5 L/kg
same,MIC,Haemophilus influenzae,4 µg/mL
CC(=O)NC[C@H]1CN(c2ccc(-c3cc(C)no3)c(F)c2)C(=O)O1,MIC,Streptococcus pneumoniae,0.25 µg/mL
same,Lung antibacterial activity relative to linezolid,Mus musculus,22%
same,Ki,[1],0.95 µmol
same,MIC,Staphylococcus aureus,0.5 µg/mL
same,MIC,Haemophilus influenzae,4 µg/mL
O=C1O[C@@H](CNc2ccon2)CN1c1ccc(-c2c[nH]nn2)c(F)c1,MIC,Streptococcus pneumoniae,16 µg/mL
same,MIC,Staphylococcus aureus,8 µg/mL
same,MIC,Haemophilus influenzae,16 µg/mL
CC(=O)NC[C@H]1CN(c2ccc(N3CCOCC3)c(F)c2)C(=O)O1 [LINEZOLID],Lung antibacterial activity relative to linezolid,Mus musculus,75%
same,Ki,[1],20 µmol
same,MIC,Haemophilus influenzae,8 µg/mL
